In patent US20240342111A1, “ISOMER-SPECIFIC NEUROPROTECTIVE EFFECT OF NATURAL RESERVATROL” (priority 2021, published 2024):

Experiments:
[1] = tested on: Rat cortical neurons; test: DNA damage (etoposide)-induced neurotoxicity, MTT assay; type: cell-based; conditions: 5 μM etoposide 24 hours, pre-treatment 16 hours
[2] = tested on: Rat cortical neurons; test: Oxidative stress (H2O2)-induced toxicity, viability; type: cell-based; conditions: 400 μM H2O2 24 hours, pre-treatment 16 hours
[3] = tested on: RAD51; test: Immunoblot for RAD51 levels; type: cell-based, rat; conditions: 4 hours
[4] = tested on: Ligase IV; test: Immunoblot for DNA repair protein Ligase IV; type: cell-based, rat; conditions: 5-50 μM, 4 hours
Source text: (§1) Ac-K56-H3 is a marker of genomic stability, see Driscoll, R., Hudson, A. & Jackson, S. P. Yeast Rtt109 promotes genome stability by acetylating histone H3 on lysine 56. Science 315, 649-652, doi:10.1126/science.1135862 (2007), and DNA damage, see Tjeertes, J. V., Miller, K. M. & Jackson, S. P. Screen for DNA-damage-responsive histone modifications identifies H3K9Ac and H3K56Ac in human cells. EMBO J 28, 1878-1889, doi:10.1038/emboj.2009.119 (2009), and inhibition of PARP1 causes the downregulation of RAD51, see Hegan, D. C. et al. Inhibition of poly(ADP-ribose) polymerase down-regulates BRCA1 and RAD51 in a pathway mediated by E2F4 and p130. […] The western blot images of the protein levels of HPF1 was quantified using ImageJ.
(§2) Cultured neurons (DIV 9-10) were washed once with cold 1×PBS and lysed in cell lysis buffer (20 mM Tris-HCl (pH 7.5), 150 mM NaCl, 1 mM Na2EDTA, 1 mM EGTA, 1% Triton, 2.5 mM sodium pyrophosphate, 1 mM beta-glycerophosphate, 1 mM Na3VO4, 1 μg/ml leupeptin supplemented with protease inhibitor). […] Lysates were quantified using Bio-Rad Protein Assay, and an equal amount of protein was loaded onto a 4 to 12% gradient gel (NuPAGE-Invitrogen). […] Quantification for the western blots was done using ImageJ (Version 1.53c).

[5] = tested on: pSer10-H3; test: Immunostaining of pSer10-H3 (ADP-ribosylation dependent DNA repair marker); type: cell-based, rat; conditions: pre-treated 50 μM 16 hours, then Aβ 50 nM 24 hours
Source text: as §1, with “p130. Proc Natl Acad Sci U S A 107, 2201-2206, doi:10.1073/pnas.0904783107 (2010), and induces neurotoxicity, see Diaz-Hernandez, J. I., Moncada, S., Bolanos, J. P. & Almeida, A. Poly(ADP-ribose) polymerase-1 protects neurons against apoptosis induced by oxidative stress. Cell Death Differ 14, 1211-1221, doi:10.1038/sj.cdd.4402117 (2007) and Midorikawa, R., Takei, Y. & Hirokawa, N. KIF4 motor regulates activity-dependent neuronal survival by suppressing PARP-1 enzymatic activity. Cell 125, 371-383, doi:10.1016/j.cell.2006.02.039 (2006).” for “p130.”
Coverslips were then mounted using DAPI (4′,6-diamidino-2-phenylindole)-supplemented mounting medium, Prolong Gold Antifade (Invitrogen) imaged with Leica DMI6000 epifluorescent microscope at 63×magnification.

[6] = tested on: PARP1; test: Auto-PARylation of PARP1 after siRNA knockdown of TyrRS; type: cell-based, rat; conditions: 15 minutes
[7] = tested on: OGG1; test: Immunoblot for OGG1 protein; type: cell-based, rat; conditions: 5-50 μM, 4 hours
[8] = tested on: GSK3β; test: Immunoblot for inhibitory GSK3β phosphorylation; type: cell-based, rat; conditions: 16 hours
[9] = tested on: Rat cortical neurons; test: trans-RSV in combination with cis-RSV, viability by MTT assay; type: cell-based; conditions: cis-RSV 10-50 μM in combination with trans-RSV, 48 hours
Description: (§3) Cell viability was assessed and quantified using MTT assay.
Rat cortical neurons (DIV 10-11) were exposed to different treatments after seeding 20,000 cells/well in 96-well plates. Cell viability was then assessed at 48 hours after the initial exposure to NMDA. 3-[4,5-dimethylthiazole-2-yl]-2,5-diphenyltetrazolium bromide (MTT) assays were used to assess change in cell viability. Cultured rat cortical neurons were incubated with MTT (0.5 mg/mL). In the MTT assay, after 2 h incubation, the insoluble purple product formazan resulting from the reduction of MTT by NAD(P)H-dependent oxidoreductases present in cells with viable mitochondria was solubilized in dimethyl sulfoxide at room temperature, under agitation, and protected from light. The percentage of MTT reduced as measured by the difference between the absorbances at 570 nm read in a spectrophotometer (Spectramax 190R Molecular Devices, UK). The percentage of reduction of MTT was calculated comparing the difference of the absorbance at 570 of each sample. Results are presented as percentage of control (wells incubated with the vehicle).

[10] = tested on: HPF1; test: Immunoblot for HPF1 protein; type: cell-based, rat; conditions: high dose 25 μM, up to 16 hr, time-dependent
Source text: as §1, §2

[11] = tested on: Rat cortical neurons transfected with PARP1 siRNA; test: siRNA knockdown of PARP1, trans-RSV neurotoxicity, MTT assay; type: cell-based; conditions: trans-RSV 50 μM, 72 hours
Description: as §3
Primary cortical neuron cultures were obtained from E18 Sprague Dawley rats' cortices, which were dissected in Hibernate E (BrainBits) and dissociated using the Neural Tissue Dissociation kit (Miltenyi Biotec). For this, minced cortices were incubated in a pre-warmed enzyme mix at 37° C. for 15 min; tissues were then triturated and strained using a 40 μm cell strainer. After washing and centrifugation, neurons were seeded in 50 μg/ml poly-D-Lysine (Sigma Aldrich) coated tissue culture plates. NBActive-1 medium (BrainBits) supplemented with 100 U/ml of Penicillin-Streptomycin (Life Technologies), 2 mM L-Glutamine (Life Technologies), and 1 X N21 supplement (R&D Systems) was used as culture medium. Control (AM4635), TyrRS (s443), PARP1 (s130207) siRNA for transfection were obtained from Invitrogen. […]
Rat cortical neurons (DIV 10-11) were exposed to different treatments after seeding 20,000 cells/well in 96-well plates. Cell viability was then assessed at 48 hours after the initial exposure to NMDA. […] The percentage of MTT reduced as measured by the difference between the absorbances at 570 nm read in a spectrophotometer (Spectramax 190R Molecular Devices, UK). The percentage of reduction of MTT was calculated comparing the difference of the absorbance at 570 of each sample. […]

| Compound | protection from DNA damage-induced neurotoxicity [1] | protection from toxicity induced by oxidative stress [2] | RAD51 levels ([3]; cis-RSV 5-50 μM) | ligase IV protein levels [4] | pSer10-H3 levels [5] | auto-PARylation of PARP1 after knockdown of TyrRS ([6]; cis-RSV 25 μM) | OGG1 protein levels [7] | GSK3β activity via inhibitory phosphorylation (pSer9) [8] | trans-RSV-mediated neurotoxicity [9] | RAD51 levels ([3]; low dose 5 μM) | RAD51 levels ([3]; ≥10 μM) | HPF1 protein levels [10] | auto-PARylation of PARP1 after knockdown of TyrRS ([6]; trans-RSV 5 μM) | effect of PARP1 siRNA knockdown on neurotoxicity [11] |
| --- | --- | --- | --- | --- | --- | --- | --- | --- | --- | --- | --- | --- | --- | --- |
| Oc1ccc(/C=C\c2cc(O)cc(O)c2)cc1 [cis-RSV, cis-resveratrol] | protects neurons from DNA damage-induced neurotoxicity | protects neurons from toxicity induced by oxidative stress | upregulated it | upregulated them | reduced pSer10-H3 levels | blunted after knockdown of TyrRS | downregulated both the protein levels of OGG1 and the levels of 8-oxo-dG | inhibited GSK3β through the upregulation of the inhibitory phosphorylation (pSer9) | rescued trans-RSV-mediated neurotoxicity |  |  |  |  |  |
| Oc1ccc(/C=C/c2cc(O)cc(O)c2)cc1 [trans-RSV, trans-resveratrol] |  |  |  | downregulated the protein levels | upregulation |  |  | activated GSK3β by downregulating the levels of pSer9 |  | upregulated it | downregulated RAD51 in a dose-dependent manner | downregulated the protein levels of the histone poly-ADP-ribosylation factor 1 (HPF1) | blunted after knockdown of TyrRS | protected against trans-RSV-mediated neurotoxicity |
